Experimental data: patent US20230061858A1, “TREATMENT WITH SITE SPECIFIC HER2 ANTIBODY-DRUG CONJUGATES” (Pfizer Inc., priority 2019, published 2023)
Where a SMILES comes first, the peptide text is derived from it. [ ]: non-standard residue; d: D form. The star is where a group is joined. Dolaproine = CO[C@@H]([C@@H]1CCCN1)[C@@H](C)C(=O)O; Dil = CC[C@H](C)[C@H](NC)[C@@H](CC(=O)O)OC; Doe = c1ccc(C[C@H](N*)c2nccs2)cc1; Aib = CC(C)(N)C(=O)O

Assay: Phase 1 pharmacokinetic assessment, Cycle 1 serum concentrations
Type: in vivo, human
Experimental: Pharmacokinetic assessments included quantifying the serum concentrations of T(kK183C+K290C)-vc0101 ADC (measured as conjugated payload), total antibody, and unconjugated payload using validated bioanalytical assays on blood samples collected before treatment and during the study. Specifically, total antibody concentrations were measured using ELISA method, T(kK183C+K290C)-vc0101 ADC concentrations were measured as conjugated payload using a hybrid LC-MS/MS method, and unconjugated payload concentrations will be measured using an LC-MS/MS method. For preliminary PK assessment, mean serum concentration-time profiles of T(kK183C+K290C)-vc0101 ADC were generated for each dose cohort; Noncompartmental PK parameters were estimated from Cycle 1 concentration-time data using nominal sampling time. For T(kK183C+K290C)-vc0101 ADC and total antibody, PK parameters including the maximum plasma concentration (Cmax), time to maximum plasma concentration (Tmax), and area under the plasma concentration versus time curve (AUCinf, AUCτ), clearance (CL), volume of distribution at steady state (Vss), terminal half-life (t1/2), and accumulation ratio (Rac) were calculated. For unconjugated payload, PK parameters including Cmax, Tmax, AUCinf, AUCτ, t1/2, and Rac, were calculated.

CC[C@H](C)[C@@H]([C@@H](CC(=O)N1CCC[C@H]1[C@H](OC)[C@@H](C)C(=O)N[C@@H](Cc1ccccc1)c1nccs1)OC)N(C)C(=O)[C@@H](NC(=O)C(C)(C)N)C(C)C [unconjugated payload, 2-methylalanyl-N-[(3R,4S,5S)-3-methoxy-1-{(2S)-2-[(1R,2R)-1-methoxy-2-methyl-3-oxo-3-{[(1S)-2-phenyl-1-(1,3-thiazol-2-yl)ethyl]amino}propyl]pyrrolidin-1-yl}-5-methyl-1-oxoheptan-4-yl]-N-methyl-L-valinamide] (H-[Aib]V[Dil][Dolaproine]-Doe)
exposure following IV administration of PF-06804103 (0.15-5.0 mg/kg, Cycle 1): Dose-dependent increases | Serum concentrations compared with ADC (Cycle 1, after IV PF-06804103): substantially lower than those of ADC
